From patent publication US6908908B2, “Biologically active 4H-benzo [1,4] oxazin-3-ones” (Ortho-McNeil Pharmaceutical, Inc., priority 2000, dated 2005)

biological target: T1, PPAR γ (Homo sapiens, UniProt P37231); test: aP2 Assay for Agonist (induction of aP2 mRNA production); type: cell-based; details: Table 1; fold increase over vehicle in induction of aP2 mRNA production; as to Agonist Intrinsic Activity: test concentration or dose not given here
T1 construct: Following the challenge of the preadipocytes, cells may be lysed with lysis buffer; endogenous in cells; host or cells: preadipocytes
T1 sequence (P37231 1-505): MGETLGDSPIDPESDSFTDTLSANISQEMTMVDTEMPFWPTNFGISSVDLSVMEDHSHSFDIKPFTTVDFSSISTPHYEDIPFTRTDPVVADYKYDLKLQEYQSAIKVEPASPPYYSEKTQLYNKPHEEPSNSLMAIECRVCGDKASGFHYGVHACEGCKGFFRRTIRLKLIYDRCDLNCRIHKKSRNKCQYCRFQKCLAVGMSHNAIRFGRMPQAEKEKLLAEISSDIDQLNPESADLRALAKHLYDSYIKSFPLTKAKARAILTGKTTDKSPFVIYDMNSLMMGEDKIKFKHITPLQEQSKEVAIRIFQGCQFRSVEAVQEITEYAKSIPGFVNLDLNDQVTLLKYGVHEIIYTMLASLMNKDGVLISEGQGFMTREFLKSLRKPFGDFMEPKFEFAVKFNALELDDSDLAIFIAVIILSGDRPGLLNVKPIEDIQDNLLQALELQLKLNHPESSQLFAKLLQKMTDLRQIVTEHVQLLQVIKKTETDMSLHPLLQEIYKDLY

| SMILES | Agonist Intrinsic Activity |
| --- | --- |
| O=C(O)CCCCN1C(=O)C(CCOc2ccccc2CC(=O)O)Oc2ccccc21 (centres unmarked) [Compound 60] | 1.5 |
| COC(=O)Cc1ccccc1OCCC1Oc2ccccc2N(CCC2CCCCC2)C1=O (centres unmarked) [Compound 65] | 0.8 |
| CCCOCCN1C(=O)C(CCOc2ccccc2C(F)(F)F)Oc2ccccc21 (centres unmarked) [Compound 20] | 1.2 |
| O=C(O)Cc1ccccc1OCCC1Oc2ccccc2N(CCCCCCCF)C1=O (centres unmarked) [Compound 110] | 64.5 |
| O=C(O)Cc1ccccc1OCCC1Oc2ccccc2N(c2ccc(Cl)c(Cl)c2)C1=O (centres unmarked) [Compound 119] | 22.8 |
| COC(=O)Cc1ccccc1OCCC1Oc2ccccc2N(CCCCC(C)=O)C1=O (centres unmarked) [Compound 77, Benzeneacetic acid, 2-[2-[3,4-dihydro-3-oxo-4-(5-oxohexyl)-2H-1,4-benzoxazin-2-yl]ethoxy]-, methyl ester] | 9.9 |
| O=C(O)Cc1ccccc1OCCC1Oc2ccccc2N(CCO)C1=O (centres unmarked) [Compound 48] | 8 |
| O=C(O)Cc1ccccc1OCCC1Oc2ccccc2N(CC(=O)O)C1=O (centres unmarked) [Compound 46] | 2 |
| CS(=O)(=O)NCCCCCCN1C(=O)C(CCOc2ccccc2CC(=O)O)Oc2ccccc21 (centres unmarked) [Compound 126, Benzeneacetic acid, 2-[2-[3,4-dihydro-3-oxo-4-(6-methanesulfonamidohexyl)-2H-1,4-benzoxazin-2-yl]ethoxy]-] | 12.96 |
| CCCCCCCCN1C(=O)C(CCOc2ccccc2CC(=O)OC)Oc2ccccc21 (centres unmarked) [Compound 52] | 1.3 |
| CC(O)CCCCN1C(=O)C(CCOc2ccccc2CC(=O)O)Oc2ccccc21 (centres unmarked) [Compound 82, Benzeneacetic acid, 2-[2-[3,4-dihydro-4-(5-hydroxyhexyl)-3-oxo-2H-1,4-benzoxazin-2-yl]ethoxy]-] | 4.9 |
| O=C(O)Cc1ccccc1OCCC1Oc2ccccc2N(CCCCCCO)C1=O (centres unmarked) [Compound 95] | 36.9 |
| NC(=O)CCCCN1C(=O)C(CCOc2ccccc2CC(=O)O)Oc2ccccc21 (centres unmarked) [Compound 62] | 1.5 |
| CCCCCCCCCN1C(=O)C(CCOc2ccccc2CC(=O)OC)Oc2ccccc21 (centres unmarked) [Compound 54] | 0.9 |
| O=C(O)Cc1ccccc1OCCC1Oc2ccccc2N(CCCCCCF)C1=O (centres unmarked) [Compound 91, Benzeneacetic acid, 2-[2-[4-(6-fluorohexyl)-3,4-dihydro-3-oxo-2H-1,4-benzoxazin-2-yl]ethoxy]-] | 64.9 |
| O=C(O)Cc1ccccc1OCCC1Oc2ccccc2N(CCO)C1=O (centres unmarked) [Compound 25] | 3.5 |

The next lines start with the values.

| Agonist Intrinsic Activity | SMILES |
| --- | --- |
| 45.4 | CC(F)(F)CCCCN1C(=O)C(CCOc2ccccc2CC(=O)O)Oc2ccccc21 (single isomer, unassigned) [Compound 88] |
| 40.8 | CC(F)(F)CCCCCN1C(=O)C(CCOc2ccccc2CC(=O)O)Oc2ccccc21 (centres unmarked) [Compound 106] |
| 0.3 | COCCCCN1C(=O)C(CCOc2ccccc2C(F)(F)F)Oc2ccccc21 (centres unmarked) [Compound 18] |
| 3.3 | O=C1C(CCOc2ccccc2C(F)(F)F)Oc2ccccc2N1Cc1ccc(Cl)c(Cl)c1 (centres unmarked) [Compound 8] |
| 5.7 | C#CCN1C(=O)C(CCOc2ccccc2CC(=O)OC)Oc2ccccc21 (centres unmarked) [Compound 49] |
| 0.9 | COC(=O)c1ccccc1OCCC1Oc2ccccc2N(Cc2cccc(C(F)(F)F)c2)C1=O (centres unmarked) [Compound 9, Benzoic acid, 2-[2-[3,4-dihydro-3-oxo-4-[[3-(trifluoromethyl)phenyl]methyl]-2H-1,4-benzoxazin-2-yl]ethoxy]-, methyl ester] |
| 0.6 | COC(=O)c1ccccc1OCCC1Oc2ccccc2N(Cc2cccc(C)c2)C1=O (centres unmarked) [Compound 3] |
| 1.3 | COC(=O)Cc1ccccc1OCCC1Oc2ccccc2N(CCOC(C)=O)C1=O (centres unmarked) [Compound 24] |
| 0.9 | COC(=O)CCCc1ccccc1OCCC1Oc2ccccc2N(Cc2cccc(C(F)(F)F)c2)C1=O (centres unmarked) [Compound 31] |
| 3.1 | O=C([O-])c1ccccc1OCCC1Oc2ccccc2N(Cc2cccc(C(F)(F)F)c2)C1=O.[Na+] (centres unmarked) [Compound 26, Benzoic acid, 2-[2-[3,4-dihydro-3-oxo-4-[[3-(trifluoromethyl)phenyl]methyl]-2H-1,4-benzoxazin-2-yl]ethoxy]-, monosodium salt] |
| 0.8 | COC(=O)CCc1cccc(OCCC2Oc3ccccc3N(Cc3cccc(C(F)(F)F)c3)C2=O)c1 (centres unmarked) [Compound 35] |
| 1.2 | COC(=O)Cc1ccccc1OCCC1Oc2ccccc2N(Cc2ccc(C(F)(F)F)cc2)C1=O (centres unmarked) [Compound 37] |
| 0.8 | O=C1C(CCOc2ccccc2C(F)(F)F)Oc2ccccc2N1Cc1cccc(C(F)(F)F)c1 (centres unmarked) [Compound 10] |

same assay, conditions: Table 2; fold increase over vehicle in induction of aP2 mRNA production

| Agonist Intrinsic Activity | SMILES |
| --- | --- |
| 2.5 | CCCCCCN1C(=O)C(C)(CCOc2ccccc2CC(=O)O)Oc2ccccc21 (centres unmarked) [Compound 128, Benzeneacetic acid, 2-[2-(4-hexyl-3,4-dihydro-2-methyl-3-oxo-2H-1,4-benzoxazin-2-yl)ethoxy]-] |

same assay, conditions: Table 3 (stereoisomers); fold increase over vehicle in induction of aP2 mRNA production

| PPAR γ Agonist Intrinsic Activity | SMILES |
| --- | --- |
| 12.62 | CCCCCCN1C(=O)C(CCOc2ccc(OC(C)(C)C(=O)O)cc2)Oc2ccccc21 (centres unmarked) [Compound 129] |
| 91.3 | CCCCCCN1C(=O)[C@](C)(CCOc2ccccc2CC(=O)O)Oc2ccccc21 [Compound 130] |
